Measured values taken from the NIST ThermoML archive (doi:10.1016/j.jct.2008.10.010).

Test: molar heat capacity at constant pressure; xn = mol fraction of the nth substance listed
Details: 101.3 kPa, Liquid, Small sample (50 mg) DSC

CCC(C)(C)O [2-methylbutan-2-ol] + CCCCCCC
molar heat capacity at constant pressure [J/K/mol]
Details	297.15 K	298.14 K	298.16 K	299.14 K	300.15 K
x1 = 0.0061	–	224.65	224.66	224.99	225.26
x1 = 0.0249	–	230.08	230.09	230.35	230.51
x1 = 0.0494	–	235.35	235.36	235.67	236
x1 = 0.1	–	240.89	240.91	241.48	241.9
x1 = 0.1547	243.63	244.27	244.3	244.98	245.57
x1 = 0.1999	245.46	246.18	246.2	246.99	247.7
x1 = 0.2993	248.18	249.05	249.07	249.97	250.81
x1 = 0.4051	249.33	250.35	250.39	251.31	252.27
x1 = 0.4986	249.76	250.83	250.87	251.91	252.92
x1 = 0.5981	249.72	250.81	250.84	251.9	253
x1 = 0.7015	249.04	250.24	250.29	251.35	–
x1 = 0.8023	247.89	249.08	249.11	250.25	–
x1 = 0.9139	246.86	247.97	248	249.1	–
x1 = 0.9609	246.4	247.48	247.52	248.6	–
